We go through 22 compounds from US9611269B2, “Azetidinyl phenyl, pyridyl or pyrazinyl carboxamide derivatives as JAK inhibitors” (Incyte Corporation, priority 2011, dated 2017).

Holding throughout (assay type): biochemical
Experiment [1] addresses human JAK1 (a.a. 837-1142) catalytic domain (Homo sapiens, UniProt P23458). Kind of experiment: In vitro JAK kinase assay (HTRF, 1 mM ATP), JAK1.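 Further: kinase activity followed as phosphorylation of a biotin-tagged peptide, detected by HTRF with Eu-labelled anti-phosphotyrosine antibody and SA-APC, after 1 h reaction at room temperature.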 The following applies: at 1 mM ATP.
Method: (§1) The catalytic activity of JAK1, JAK2 or JAK3 was assayed by measuring the phosphorylation of a biotinylated peptide. The phosphorylated peptide was detected by homogenous time resolved fluorescence (HTRF). […] Reactions were carried out at room temperature for 1 hour and then stopped with 20 μL 45 mM EDTA, 300 nM SA-APC, 6 nM Eu-Py20 in assay buffer (Perkin Elmer, Boston, Mass.). Binding to the Europium labeled antibody took place for 40 minutes and HTRF signal was measured on a Fusion plate reader (Perkin Elmer, Boston, Mass.).
The test system of experiment [2] is human JAK1 (a.a. 837-1142) catalytic domain. Kind of experiment: In vitro JAK kinase assay (HTRF, 1 mM ATP), JAK1.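 Further: kinase activity followed as phosphorylation of a biotin-tagged peptide, detected by HTRF with Eu-labelled anti-phosphotyrosine antibody and SA-APC, after 1 h reaction at room temperature.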 To be noted: ratio of JAK2 IC50 to JAK1 IC50 at 1 mM ATP.
Method: as §1
The target in experiment [3] is human JAK2 (a.a. 828-1132) catalytic domain (Homo sapiens (Human), UniProt O60674). Kind of experiment: In vitro JAK kinase assay (HTRF, 1 mM ATP), JAK2. To be noted: at 1 mM ATP. On the technique in general: TR-FRET usually uses a lanthanide donor and a delayed reading to cut background.
Method: as §1

The structures appear in SMILES notation. Where only a bound is given, the exact number is not on record here.

Sequence of human JAK1 (a.a. 837-1142) catalytic domain (Homo sapiens, UniProt P23458) (P23458 whole entry, looked up, the tested form may be a part): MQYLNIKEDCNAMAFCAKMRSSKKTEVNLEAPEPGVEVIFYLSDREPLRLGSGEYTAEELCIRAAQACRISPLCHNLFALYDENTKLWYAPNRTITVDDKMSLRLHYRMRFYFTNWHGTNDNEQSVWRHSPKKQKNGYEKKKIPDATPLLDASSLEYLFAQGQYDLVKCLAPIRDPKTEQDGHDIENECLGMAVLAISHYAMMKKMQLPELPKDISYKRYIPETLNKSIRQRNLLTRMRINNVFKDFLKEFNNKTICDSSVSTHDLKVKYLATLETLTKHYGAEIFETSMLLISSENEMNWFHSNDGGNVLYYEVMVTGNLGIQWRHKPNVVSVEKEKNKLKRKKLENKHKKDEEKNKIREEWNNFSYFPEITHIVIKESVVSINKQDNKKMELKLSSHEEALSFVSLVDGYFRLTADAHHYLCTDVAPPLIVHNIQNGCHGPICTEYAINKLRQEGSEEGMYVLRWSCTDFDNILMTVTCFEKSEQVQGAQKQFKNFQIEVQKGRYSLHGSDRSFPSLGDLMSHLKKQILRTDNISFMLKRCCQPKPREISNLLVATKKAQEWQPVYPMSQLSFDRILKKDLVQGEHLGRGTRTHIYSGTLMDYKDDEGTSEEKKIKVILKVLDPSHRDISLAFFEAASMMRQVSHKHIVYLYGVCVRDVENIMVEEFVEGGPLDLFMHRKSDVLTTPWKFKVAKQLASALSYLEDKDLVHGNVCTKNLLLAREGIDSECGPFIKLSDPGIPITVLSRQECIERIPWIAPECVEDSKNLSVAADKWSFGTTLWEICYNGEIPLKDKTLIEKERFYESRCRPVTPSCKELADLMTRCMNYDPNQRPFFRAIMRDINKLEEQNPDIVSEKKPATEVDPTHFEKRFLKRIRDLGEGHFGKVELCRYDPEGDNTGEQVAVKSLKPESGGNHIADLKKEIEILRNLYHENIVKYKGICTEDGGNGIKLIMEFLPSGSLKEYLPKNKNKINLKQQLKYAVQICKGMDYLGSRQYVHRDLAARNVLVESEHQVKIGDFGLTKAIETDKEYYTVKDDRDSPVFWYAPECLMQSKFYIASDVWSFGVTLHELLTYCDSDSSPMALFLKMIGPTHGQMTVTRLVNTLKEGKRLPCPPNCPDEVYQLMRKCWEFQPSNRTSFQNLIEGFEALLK
Sequence of human JAK2 (a.a. 828-1132) catalytic domain (O60674 828-1132): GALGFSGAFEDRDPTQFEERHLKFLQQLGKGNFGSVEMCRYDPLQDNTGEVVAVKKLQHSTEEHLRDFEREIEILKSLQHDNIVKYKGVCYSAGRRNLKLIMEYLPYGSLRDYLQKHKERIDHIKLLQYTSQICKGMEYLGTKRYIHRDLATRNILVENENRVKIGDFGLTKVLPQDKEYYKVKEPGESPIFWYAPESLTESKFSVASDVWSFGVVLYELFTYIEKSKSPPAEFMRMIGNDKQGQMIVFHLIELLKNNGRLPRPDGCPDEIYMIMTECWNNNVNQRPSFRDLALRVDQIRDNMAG

Take `CC(C)NC(=O)c1ccc(N2CC(CC#N)(n3cc(-c4ccnc5[nH]ccc45)cn3)C2)cc1` [Example 1, 4-{3-(Cyanomethyl)-3-[4-(1H-pyrrolo[2,3-b]pyridin-4-yl)-1H-pyrazol-1-yl]azetidin-1-yl}-N-isopropylbenzamide]: the IC50 in experiment [1] was below 10 nM; in experiment [3], 10 to 40 nM. Also, in experiment [2], the JAK2/JAK1 entry is recorded as “A (A means greater than or equal to 10)”.

Take `C[C@H](NC(=O)c1ccc(N2CC(CC#N)(n3cc(-c4ccnc5[nH]ccc45)cn3)C2)cn1)C1CC1` [Example 2, 5-{3-(Cyanomethyl)-3-[4-(1H-pyrrolo[2,3-b]pyridin-4-yl)-1H-pyrazol-1-yl]azetidin-1-yl}-N-[(1S)-1-cyclopropylethyl]pyridine-2-carboxamide]: the 50% inhibitory concentration (IC50) was below 10 nM in experiment [1] and at most 10 nM in experiment [3]. The JAK2/JAK1 entry in experiment [2] is reported as “A (A means greater than or equal to 10)”.

`CC(C)NC(=O)c1ccc(N2CC(CC#N)(n3cc(-c4ncnc5[nH]ccc45)cn3)C2)c(F)c1` [Example 3, 4-{3-(Cyanomethyl)-3-[4-(7H-pyrrolo[2,3-d]pyrimidin-4-yl)-1H-pyrazol-1-yl]azetidin-1-yl}-3-fluoro-N-isopropylbenzamide]: the concentration for half-maximal inhibition (IC50) in experiment [1] was below 10 nM; in experiment [3], at most 10 nM. The JAK2/JAK1 result in experiment [2] was “A (A means greater than or equal to 10)”.

On to `C[C@@H](NC(=O)c1ccc(N2CC(CC#N)(n3cc(-c4ncnc5[nH]ccc45)cn3)C2)c(F)c1)C1CC1` [Example 4, 4-{3-(Cyanomethyl)-3-[4-(7H-pyrrolo[2,3-d]pyrimidin-4-yl)-1H-pyrazol-1-yl]azetidin-1-yl}-N-[(1R)-1-cyclopropylethyl]-3-fluorobenzamide], for which the IC50 in experiment [1] was below 10 nM; in experiment [3], at most 10 nM. For the same compound, in experiment [2], the JAK2/JAK1 result is “A (A means greater than or equal to 10)”.

Consider `C[C@H](NC(=O)c1ccc(N2CC(CC#N)(n3cc(-c4ncnc5[nH]ccc45)cn3)C2)c(F)c1)C1CC1` [Example 5, 4-{3-(Cyanomethyl)-3-[4-(7H-pyrrolo[2,3-d]pyrimidin-4-yl)-1H-pyrazol-1-yl]azetidin-1-yl}-N-[(1S)-1-cyclopropylethyl]-3-fluorobenzamide], for which the half-inhibitory concentration (IC50) is below 10 nM in experiment [1] and at most 10 nM in experiment [3]. For the same compound, the JAK2/JAK1 entry in experiment [2] is recorded as “A (A means greater than or equal to 10)”.

Turning to `CC(C)NC(=O)c1cc(F)c(N2CC(CC#N)(n3cc(-c4ncnc5[nH]ccc45)cn3)C2)cc1F` [Example 6, 4-{3-(Cyanomethyl)-3-[4-(7H-pyrrolo[2,3-d]pyrimidin-4-yl)-1H-pyrazol-1-yl]azetidin-1-yl}-2,5-difluoro-N-isopropylbenzamide], the concentration for half-maximal inhibition (IC50) in experiment [1] is below 10 nM; in experiment [3], at most 10 nM. For the same compound, the JAK2/JAK1 result in experiment [2] is on record as “A (A means greater than or equal to 10)”.

In the case of `CN(C(=O)c1ccc(N2CC(CC#N)(n3cc(-c4ncnc5[nH]ccc45)cn3)C2)c(F)c1)C1CC1` [Example 7, 4-{3-(Cyanomethyl)-3-[4-(7H-pyrrolo[2,3-d]pyrimidin-4-yl)-1H-pyrazol-1-yl]azetidin-1-yl}-N-cyclopropyl-3-fluoro-N-methylbenzamide], the 50% inhibitory concentration (IC50) is below 10 nM in experiment [1] and at most 10 nM in experiment [3]. The JAK2/JAK1 entry in experiment [2] is recorded as “A (A means greater than or equal to 10)”.

As for `CC(C)NC(=O)c1cc(Cl)c(N2CC(CC#N)(n3cc(-c4ncnc5[nH]ccc45)cn3)C2)cc1F` [Example 8, 5-Chloro-4-{3-(cyanomethyl)-3-[4-(7H-pyrrolo[2,3-d]pyrimidin-4-yl)-1H-pyrazol-1-yl]azetidin-1-yl}-2-fluoro-N-isopropylbenzamide], the IC50 in experiment [1] is below 10 nM; in experiment [3], at most 10 nM. The JAK2/JAK1 result in experiment [2] is on record as “A (A means greater than or equal to 10)”.

Take `CC(C)NC(=O)c1ccc(N2CC(CC#N)(n3cc(-c4ncnc5[nH]ccc45)cn3)C2)cn1` [Example 9, 5-{3-(Cyanomethyl)-3-[4-(7H-pyrrolo[2,3-d]pyrimidin-4-yl)-1H-pyrazol-1-yl]azetidin-1-yl}-N-isopropylpyridine-2-carboxamide]: the values for the IC50 in experiment [1] and in experiment [3] were below 10 nM and at most 10 nM, respectively. Moreover, the JAK2/JAK1 result in experiment [2] is “A (A means greater than or equal to 10)”.

Consider `C[C@H](NC(=O)c1ccc(N2CC(CC#N)(n3cc(-c4ncnc5[nH]ccc45)cn3)C2)c(F)c1)C(F)(F)F` [Example 10, 4-{3-(Cyanomethyl)-3-[4-(7H-pyrrolo[2,3-d]pyrimidin-4-yl)-1H-pyrazol-1-yl]azetidin-1-yl}-3-fluoro-N-[(1S)-2,2,2-trifluoro-1-methylethyl]benzamide], for which the half-inhibitory concentration (IC50) was below 10 nM in experiment [1] and at most 10 nM in experiment [3]. For the same compound, the JAK2/JAK1 result in experiment [2] is given as “A (A means greater than or equal to 10)”.

Turning to `C[C@H](NC(=O)c1ccc(N2CC(CC#N)(n3cc(-c4ncnc5[nH]ccc45)cn3)C2)cn1)C1CC1` [Example 11, 5-{3-(Cyanomethyl)-3-[4-(7H-pyrrolo[2,3-d]pyrimidin-4-yl)-1H-pyrazol-1-yl]azetidin-1-yl}-N-[(1S)-1-cyclopropylethyl]pyridine-2-carboxamide], the IC50 is below 10 nM in experiment [1] and at most 10 nM in experiment [3]. Further, the JAK2/JAK1 result in experiment [2] is “A (A means greater than or equal to 10)”.

`N#CCC1(n2cc(-c3ncnc4[nH]ccc34)cn2)CN(c2ccc(C(=O)NC3CC(F)(F)C3)nc2)C1` [Example 12, 5-{3-(Cyanomethyl)-3-[4-(7H-pyrrolo[2,3-d]pyrimidin-4-yl)-1H-pyrazol-1-yl]azetidin-1-yl}-N-(3,3-difluorocyclobutyl)pyridine-2-carboxamide]: the half-maximal inhibitory concentration (IC50) in experiment [1] was below 10 nM; in experiment [3], at most 10 nM. Besides, the JAK2/JAK1 entry in experiment [2] is recorded as “A (A means greater than or equal to 10)”.

For the compound `CC(C)NC(=O)c1ccc(N2CC(CC#N)(n3cc(-c4ncnc5[nH]ccc45)cn3)C2)cc1` [Example 13, 4-{3-(Cyanomethyl)-3-[4-(7H-pyrrolo[2,3-d]pyrimidin-4-yl)-1H-pyrazol-1-yl]azetidin-1-yl}-N-isopropylbenzamide], the IC50 is below 10 nM in experiment [1] and 10 to 40 nM in experiment [3]. The JAK2/JAK1 result in experiment [2] is recorded as “A (A means greater than or equal to 10)”.

In the case of `CC(C)NC(=O)c1ccc(N2CC(CC#N)(n3cc(-c4ncnc5[nH]ccc45)cn3)C2)cc1F` [Example 14, 4-{3-(Cyanomethyl)-3-[4-(7H-pyrrolo[2,3-d]pyrimidin-4-yl)-1H-pyrazol-1-yl]azetidin-1-yl}-2-fluoro-N-isopropylbenzamide], the IC50 in experiment [1] is below 10 nM.

On to `C[C@H](NC(=O)c1ccc(N2CC(CC#N)(n3cc(-c4ncnc5[nH]ccc45)cn3)C2)cc1F)C1CCCCC1` [Example 15, 4-{3-(Cyanomethyl)-3-[4-(7H-pyrrolo[2,3-d]pyrimidin-4-yl)-1H-pyrazol-1-yl]azetidin-1-yl}-N-[(1S)-1-cyclohexylethyl]-2-fluorobenzamide], for which the values for the concentration for half-maximal inhibition (IC50) in experiment [1] and in experiment [3] were below 10 nM and 10 to 40 nM, respectively. In addition, the JAK2/JAK1 entry in experiment [2] is listed as “A (A means greater than or equal to 10)”.

Regarding `C[C@@H](NC(=O)c1ccc(N2CC(CC#N)(n3cc(-c4ncnc5[nH]ccc45)cn3)C2)c(F)c1)C(F)(F)F` [Example 16, 4-{3-(Cyanomethyl)-3-[4-(7H-pyrrolo[2,3-d]pyrimidin-4-yl)-1H-pyrazol-1-yl]azetidin-1-yl}-3-fluoro-N-[(1R)-2,2,2-trifluoro-1-methylethyl]benzamide], the 50% inhibitory concentration (IC50) in experiment [1] is below 10 nM; in experiment [3], at most 10 nM. Further, in experiment [2], the JAK2/JAK1 result is “A (A means greater than or equal to 10)”.

For the compound `N#CCC1(n2cc(-c3ncnc4[nH]ccc34)cn2)CN(c2ccc(C(=O)NC3(C(F)(F)F)CC3)nc2)C1` [Example 17, 5-{3-(Cyanomethyl)-3-[4-(7H-pyrrolo[2,3-d]pyrimidin-4-yl)-1H-pyrazol-1-yl]azetidin-1-yl}-N-[1-(trifluoromethyl)cyclopropyl]pyridine-2-carboxamide], the 50% inhibitory concentration (IC50) in experiment [1] was below 10 nM; in experiment [3] it was at most 10 nM. Also, the JAK2/JAK1 entry in experiment [2] was “A (A means greater than or equal to 10)”.

`CC(C)NC(=O)c1cnc(N2CC(CC#N)(n3cc(-c4ncnc5[nH]ccc45)cn3)C2)cn1` [Example 18, 5-{3-(Cyanomethyl)-3-[4-(7H-pyrrolo[2,3-d]pyrimidin-4-yl)-1H-pyrazol-1-yl]azetidin-1-yl}-N-isopropylpyrazine-2-carboxamide]: the IC50 in experiment [3] is 10 to 40 nM.

`C[C@H](NC(=O)c1ccc(N2CC(CC#N)(n3cc(-c4ncnc5[nH]ccc45)cn3)C2)cc1)C(F)(F)F` [Example 19, 4-{3-(Cyanomethyl)-3-[4-(7H-pyrrolo[2,3-d]pyrimidin-4-yl)-1H-pyrazol-1-yl]azetidin-1-yl}-N-[(1S)-2,2,2-trifluoro-1-methylethyl]benzamide bis(trifluoroacetate)]: in experiment [1], the 50% inhibitory concentration (IC50) is below 10 nM.

In turn, `C[C@@H](NC(=O)c1ccc(N2CC(CC#N)(n3cc(-c4ncnc5[nH]ccc45)cn3)C2)cc1)C(F)(F)F` [Example 23, 4-{3-(Cyanomethyl)-3-[4-(7H-pyrrolo[2,3-d]pyrimidin-4-yl)-1H-pyrazol-1-yl]azetidin-1-yl}-N-[(1R)-2,2,2-trifluoro-1-methylethyl]benzamide bis(trifluoroacetate)] returned a 50% inhibitory concentration (IC50) in experiment [1] below 10 nM.

For the compound `CC(NC(=O)c1ccc(N2CC(CC#N)(n3cc(-c4ncnc5[nH]ccc45)cn3)C2)cc1)C(F)(F)F` (stereo not drawn) [Example 26, 4-{3-(Cyanomethyl)-3-[4-(7H-pyrrolo[2,3-d]pyrimidin-4-yl)-1H-pyrazol-1-yl]azetidin-1-yl}-N-(2,2,2-trifluoro-1-methylethyl)benzamide], in experiment [1], the IC50 is below 10 nM.

The compound `CC(C)NC(=O)c1cnc(N2CC(CC#N)(n3cc(-c4ccnc5[nH]ccc45)cn3)C2)cn1` [Example 34, 5-{3-(Cyanomethyl)-3-[4-(1H-pyrrolo[2,3-b]pyridin-4-yl)-1H-pyrazol-1-yl]azetidin-1-yl}-N-isopropylpyrazine-2-carboxamide] yielded an IC50 in experiment [3] of 10 to 40 nM.

As usually defined, the IC50 is the concentration at which inhibition is half-maximal.
